The source made the active and inactive calls. The calls are words filed in the database; no cut-off is given here.
How the values were obtained:
U-937 = experiment: Antiproliferative activity against human U937 cells after 24 hrs by MTT assay; type: functional; settings: U-937, 24 h
A375P = experiment: Antiproliferative activity against human A375P cells after 24 hrs by MTT assay; type: functional, cell-based
[1] = Cytotoxicity against human HS27 cells after 24 hrs by MTT assay; type: cell-based

GI50 (U-937)	Structure (SMILES)	Activity (A375P)	GI50 at 24 h [1]
0.019 µM	Cc1ccc(NC(=O)c2cc(-n3ccnc3C)cc(C(F)(F)F)c2)cc1NC(=O)c1cnoc1C	inactive	> 30 µM
> 30 µM	CCCS(=O)(=O)Nc1ccc(C)c(NC(=O)c2cnoc2C)c1	inactive	> 30 µM
> 30 µM	Cc1cc(NC(=O)Nc2ccccc2F)ccc1NC(=O)c1cnoc1C	inactive	> 30 µM
> 30 µM	Cc1ccc(NC(=O)Cc2c[nH]c3ccccc23)cc1NC(=O)c1cnoc1C	inactive	> 30 µM
> 30 µM	Cc1cc(NC(=O)Nc2ccc(Cl)c(Cl)c2)ccc1NC(=O)c1cnoc1C	inactive	> 30 µM
> 30 µM	Cc1ccc(NC(=O)Nc2cc(Cl)cc(Cl)c2)cc1NC(=O)c1cnoc1C	inactive	> 30 µM
> 30 µM	Cc1ccc(NC(=O)C(c2ccc(Cl)cc2)c2ccc(Cl)cc2)cc1NC(=O)c1cnoc1C	inactive	> 30 µM
–	CNC(=O)c1cc(Oc2ccc(NC(=O)Nc3ccc(Cl)c(C(F)(F)F)c3)cc2)ccn1 [SORAFENIB]	inactive	> 30 µM
0.465 µM	Cc1ccc(NC(=O)c2ccc(N3CCOCC3)c(C(F)(F)F)c2)cc1NC(=O)c1cnoc1C	inactive	> 30 µM
16.5 µM	Cc1cc(NC(=O)Nc2ccc(Cl)c(C(F)(F)F)c2)ccc1NC(=O)c1cnoc1C	inactive	> 30 µM
> 30 µM	Cc1ccc(NC(=O)c2ccc(Cl)c(C(F)(F)F)c2)cc1NC(=O)c1cnoc1C	inactive	> 30 µM
> 30 µM	Cc1ccc(NC(=O)Cc2ccccc2F)cc1NC(=O)c1cnoc1C	inactive	> 30 µM
> 30 µM	Cc1ccc(NC(=O)C2(C)CCc3c(C)c(O)c(C)c(C)c3O2)cc1NC(=O)c1cnoc1C (stereo not given)	inactive	> 30 µM
> 30 µM	CCCS(=O)(=O)Nc1ccc(NC(=O)c2cnoc2C)c(C)c1	inactive	> 30 µM
> 30 µM	Cc1cc(NC(=O)c2cc(N3CCN(C)CC3)cc(C(F)(F)F)c2)ccc1NC(=O)c1cnoc1C	inactive	> 30 µM
> 30 µM	Cc1ccc(NC(=O)Nc2ccc(Cl)c(C(F)(F)F)c2)cc1NC(=O)c1cnoc1C	inactive	> 30 µM
> 30 µM	Cc1ccc(NC(=O)Cc2ccc(-c3ccccc3)cc2)cc1NC(=O)c1cnoc1C	inactive	> 30 µM
